Source: patent US9198893B2, “Combination antitumor therapy” (GALERA LABS, LLC, priority 2008, dated 2015)

Legend:
CT26 mouse colon tumor = assay: Mouse colon tumor model, first experiment (CT26 fragments implanted in BALB/c mice); assay type: in vivo; settings: SOD mimetic 6 mg/kg IP twice daily from day 6, combined with gemcitabine 80 mg/kg IP on days 6, 9, 12, 15; compared with gemcitabine alone
Protocol: A. In a first experiment, fragments of CT26 mouse colon tumor were implanted in female BALB/c mice and allowed to grow for 6 days to a size of about 110 mg (107-115 mg).
On this day, day 6, mice were administered 6 mg/kg of KM4403 or KM4419 intraperitoneally (IP) and dosing was continued twice daily for the duration of the study.
In some groups, gemcitabine was administered on days 6, 9, 12 and 15 at a dosage of 80 mg/kg, also via IP, 10 minutes after the administration of KM4403 or KM4419.

[1] = combination with interleukin-2; Samlowski et al., Nature Medicine (2003); cited from earlier work
[2] = Activity of superoxide dismutase mimetic toward hydrogen peroxide (selectivity); assay type: biochemical
C26 colon tumor = assay: Mouse colon tumor model, second experiment (C26 fragments implanted in BALB/c mice); assay type: in vivo; settings: KM4419 10 mg/kg or 20 mg/kg twice daily from day 7, combined with gemcitabine 120 mg/kg IP on days 7, 13, 16, both KM4419 dosage levels, FIG. 1
Protocol: B. In a second experiment, fragments of C26 colon tumor were implanted in female BALB/c mice and grown until day 7 at which point they averaged 123 mg.
Groups 1 and 2 (n=8) were given 10 mg/kg or 20 mg/kg of KM4419 twice daily starting at day 7.
In groups 3 and 4 (n=8), gemcitabine was administered at 120 mg/kg or 160 mg/kg IP on days 7, 13 and 16.
In groups 5 and 6 (n=8), both gemcitabine and KM4419 were administered according to the foregoing regimens. Gemcitabine was administered 10 minutes after KM4419 in these groups. The levels of KM4419 were 10 mg/kg and 20 mg/kg, respectively, and the dose of gemcitabine was 120 mg/kg.

[3] = test system: human A549 non-small lung carcinoma cells; assay: Non-small cell lung cancer tumor model (A549 cells implanted into flanks of BALB/c mice); assay type: in vivo; settings: KM4419 30 mg/kg IP on days 9-23, combined with paclitaxel 12.5 mg/kg IP on days 9 and 13; compared with either drug alone; FIG. 2
Protocol: In a manner similar to that of Example 1, human A549 non-small lung carcinoma cells were implanted into the flanks of female BALB/c mice, and the tumors were allowed to grow until day 9. Group 1 was administered only vehicle. Group 2 (n=10) was administered only paclitaxel at 12.5 mg/kg IP on days 9 and 13. In group 3 (n=10), the mice were administered 30 mg/kg of KM4419 IP on days 9-23. In group 4 (n=10), a combination of these protocols was administered.

activity toward hydrogen peroxide [2] | Compound | tumor size (CT26 mouse colon tumor) | other results
 | [Cl][Mn-5]1234([Cl])[n+]5c6cccc5C[NH+]1[C@@H]1CCCC[C@H]1[NH+]2CC[NH+]3[C@@H]1CCCC[C@H]1[NH+]4C6 (stereo partly drawn) [KM4403] | decreased tumor size | antitumor effect of IL-2 in combination treatment [1]: potentiates the antitumor effect of IL-2
significant activity | CC(C)c1cc(C(=O)O)c([O-])c(C(C)C)c1.CC(C)c1cc(C(=O)O)c([O-])c(C(C)C)c1.[Cu+2] [CuDIPS, copper [II] diisopropylsalicylate] |  | 
 | [Cl][Mn-5]1234([Cl])[n+]5c6cccc5C[NH+]1[C@H]1CCCC[C@@H]1[NH+]2CC[NH+]3[C@H]1CCCC[C@@H]1[NH+]4C6 (stereo partly drawn) [KM4419] | decreased tumor size | tumor recurrence (C26 colon tumor): delayed recurrence; tumor size (C26 colon tumor; compared with gemcitabine alone): decreased the tumor size more effectively than gemcitabine alone; effectiveness on tumor growth [3]: more effective than either drug taken alone
significant activity | mangafodipir |  | 

Compound | activity toward hydrogen peroxide [2] | tumor size (CT26 mouse colon tumor) | other results
manganese [III] tetrakis-(5,10,15,20)-benzoic acid porphyrin [MnTBAP] | significant activity |  | 
